EC50 and IC50 data for 14 compounds are collected here from patent US20230339981A1, “KRAS G12D MODULATING COMPOUNDS” (priority 2022, published 2023).

Each structure is given as a SMILES string.

For one experiment, the system named is AsPC-1 (KRAS G12D) cells. In words: 3D cell viability assay (spheroids, CellTiter-Glo 3D). The class given is cell-based. The following applies: Homo sapiens, ASPC1, 96 h, AsPC-1 cells, 3D spheroids, 4 days. The gist of the method:
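AsPC-1 cells (1000/well) in DMEM with 10% FBS formed spheroids over 3 days at 37 °C in ultra-low attachment plates, then were treated with 1:3 serial dilutions for 4 days. Viability read by CellTiter-Glo 3D luminescence; EC50 as concentration giving 50% signal decrease, sigmoidal fit.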

For a further experiment, the system named is GP2D (KRAS G12D) cells. In words: 2D cell viability assay (CellTiter-Glo). The following applies: GP2d, 96 h, 4 days. The class given is cell-based. Summed up:
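Viability was read by CellTiter-Glo after 4 days at 37 °C of 2D culture of KRAS G12D GP2D cells (1000/well, RPMI, 10% FBS) on pre-spotted threefold compound dilutions. EC50 was fitted with a sigmoidal dose-response model as the point of half-maximal luminescence loss.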
A general note: In ATP-based viability assays light output follows the ATP content of the culture.

A further experiment deals with GDP-loaded KRAS G12D (Homo sapiens (Human), UniProt P01116, G12D). In words: KRAS G12D (GDP) biochemical assay (TR-FRET probe displacement). It is filed as binding. The note with it: 2 hours. Summed up:
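TR-FRET probe displacement: 1:3 DMSO serial dilutions pre-incubated 30 min with GDP-bound KRAS G12D, followed by Eu-streptavidin/probe for 2 h at room temperature (Hepes pH 7.4, NaCl, MgCl2, Tween-20 buffer). IC50 defined as concentration halving TR-FRET ratio, from sigmoidal dose-response fit.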
In general terms: In TR-FRET formats the signal depends on donor and acceptor labels being close together.

GDP-loaded KRAS G12D, sequence (P01116-2 other isoform, or with tags, fused parts or gaps G12D): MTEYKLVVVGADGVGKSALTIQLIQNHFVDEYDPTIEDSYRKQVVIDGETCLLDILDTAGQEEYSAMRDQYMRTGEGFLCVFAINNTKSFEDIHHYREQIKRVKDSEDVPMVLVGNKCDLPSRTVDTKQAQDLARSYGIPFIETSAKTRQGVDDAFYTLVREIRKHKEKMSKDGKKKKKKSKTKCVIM

By EC50 is commonly meant the concentration giving half of the maximal effect. A lower EC50 goes with a more potent agent. Broadly, the IC50 is the concentration needed to halve the response being measured. For `C#Cc1c(F)ccc2cc(O)cc(-c3nc4c5c(nc(OC[C@@]67CCCN6[C@H](COc6ncccc6OC(F)(F)F)CC7)nc5c3F)N3C[C@H]5CC[C@H](N5)[C@H]3CC4)c12` [Example 160, 5-ethynyl-6-fluoro-4-((5aR,6S,9R)-1-fluoro-12-(((3S,7aS)-3-(((3-(trifluoromethoxy)pyridin-2-yl)oxy)methyl)tetrahydro-1H-pyrrolizin-7a(5H)-yl)methoxy)-4,5,5a,6,7,8,9,10-octahydro-3,10a,11,13,14-pentaaza-6,9-methanonaphtho[1,8-ab]heptalen-2-yl)naphthalen-2-ol], the EC50 with AsPC-1 (KRAS G12D) cells stood at 16 nM; with GP2D (KRAS G12D) cells, 1.4 nM. In addition, on GDP-loaded KRAS G12D, the IC50 was 0.2 nM.
Regarding `C#Cc1c(F)ccc2cc(O)cc(-c3nc4c5c(nc(OCC6(CN7CCC(OC(F)(F)F)CC7)CC6)nc5c3F)N3C[C@H]5CC[C@H](N5)[C@H]3CCC4)c12` [Example 161, 5-ethynyl-6-fluoro-4-((6aR,7S,10R)-1-fluoro-13-((1-((4-(trifluoromethoxy)piperidin-1-yl)methyl)cyclopropyl)methoxy)-5,6,6a,7,8,9,10,11-octahydro-4H-3,11a,12,14,15-pentaaza-7,10-methanocyclohepta[4,5]cycloocta[1,2,3-de]naphthalen-2-yl)naphthalen-2-ol], the values for the EC50 in the experiment on AsPC-1 (KRAS G12D) cells and with GP2D (KRAS G12D) cells were 23 nM and 0.3 nM, respectively. Moreover, the half-maximal inhibitory concentration (IC50) at GDP-loaded KRAS G12D turned out to be 0.3 nM.
With `C#Cc1c(F)ccc2cc(O)cc(-c3nc4c5c(nc(OC[C@@]67CCCN6[C@H](CF)CC7)nc5c3F)N3C[C@H]5CC[C@H](N5)[C@H]3CC4)c12` [Example 165, 5-ethynyl-6-fluoro-4-((5aR,6S,9R)-1-fluoro-12-(((3S,7aS)-3-(fluoromethyl)tetrahydro-1H-pyrrolizin-7a(5H)-yl)methoxy)-4,5,5a,6,7,8,9,10-octahydro-3,10a,11,13,14-pentaaza-6,9-methanonaphtho[1,8-ab]heptalen-2-yl)naphthalen-2-ol], the EC50 with AsPC-1 (KRAS G12D) cells amounted to 3.9 nM; in the experiment with GP2D (KRAS G12D) cells, 0.7 nM. This compound also registered an IC50 on GDP-loaded KRAS G12D of under 0.1 nM.
`C#Cc1c(F)ccc2cccc(-c3nc4c5c(nc(OC[C@@]67CCCN6[C@H](CF)CC7)nc5c3F)N3C[C@H]5CC[C@H](N5)[C@H]3CC4)c12` [Example 166, (5aR,6S,9R)-2-(8-ethynyl-7-fluoronaphthalen-1-yl)-1-fluoro-12-(((3S,7aS)-3-(fluoromethyl)tetrahydro-1H-pyrrolizin-7a(5H)-yl)methoxy)-4,5,5a,6,7,8,9,10-octahydro-3,10a,11,13,14-pentaaza-6,9-methanonaphtho[1,8-ab]heptalene]: the EC50 came to 110 nM in the experiment with AsPC-1 (KRAS G12D) cells and 3.5 nM in the experiment with GP2D (KRAS G12D) cells. In addition, the IC50 at GDP-loaded KRAS G12D amounted to 0.3 nM.
With `C#Cc1c(F)ccc2cc(O)cc(-c3nc4c5c(nc(OCC6(CN7CCC(CC(F)(F)F)CC7)CC6)nc5c3F)N3C[C@H]5CC[C@H](N5)[C@H]3CC4)c12` [Example 167, 5-ethynyl-6-fluoro-4-((5aR,6S,9R)-1-fluoro-12-((1-((4-(2,2,2-trifluoroethyl)piperidin-1-yl)methyl)cyclopropyl)methoxy)-4,5,5a,6,7,8,9,10-octahydro-3,10a,11,13,14-pentaaza-6,9-methanonaphtho[1,8-ab]heptalen-2-yl)naphthalen-2-ol], the EC50 was 32 nM with AsPC-1 (KRAS G12D) cells and 0.7 nM with GP2D (KRAS G12D) cells. The same compound returned a half-inhibitory concentration (IC50) at GDP-loaded KRAS G12D of under 0.1 nM.
Consider `C#Cc1c(F)ccc2cc(O)cc(-c3nc4c5c(nc(OCC6(CN7CCC(OC)(C(F)(F)F)CC7)CC6)nc5c3F)N3C[C@H]5CC[C@H](N5)[C@H]3CC4)c12` [Example 168, 5-ethynyl-6-fluoro-4-((5aR,6S,9R)-1-fluoro-12-((1-((4-methoxy-4-(trifluoromethyl)piperidin-1-yl)methyl)cyclopropyl)methoxy)-4,5,5a,6,7,8,9,10-octahydro-3,10a,11,13,14-pentaaza-6,9-methanonaphtho[1,8-ab]heptalen-2-yl)naphthalen-2-ol], for which the EC50 in the experiment on AsPC-1 (KRAS G12D) cells stood at 24 nM; with GP2D (KRAS G12D) cells, 0.5 nM. For the same compound, the half-maximal inhibitory concentration (IC50) on GDP-loaded KRAS G12D was found to be 0.2 nM.
For `C#Cc1c(F)ccc2cccc(-c3nc4c5c(nc(OC[C@@]67CCCN6C[C@H](F)C7)nc5c3F)N3C[C@H]5CC[C@H](N5)[C@H]3[C@H](CC)O4)c12` [Example 169, (5S,5aS,6S,9R)-5-ethyl-2-(8-ethynyl-7-fluoronaphthalen-1-yl)-1-fluoro-12-(((2R,7aS)-2-fluorotetrahydro-1H-pyrrolizin-7a(5H)-yl)methoxy)-5a,6,7,8,9,10-hexahydro-5H-4-oxa-3,10a,11,13,14-pentaaza-6,9-methanonaphtho[1,8-ab]heptalene], the EC50 amounted to 190 nM in the experiment on AsPC-1 (KRAS G12D) cells and 26.5 nM in the experiment on GP2D (KRAS G12D) cells. In addition, the half-maximal inhibitory concentration (IC50) on GDP-loaded KRAS G12D came to 0.8 nM.
Take `C#Cc1c(F)ccc2cccc(-c3nc4c5c(nc(OC[C@@]67CCCN6C[C@H](F)C7)nc5c3F)N3C[C@H]5CC[C@H](N5)[C@@H]3CC4)c12` [Example 170, (5aS,6S,9R)-2-(8-ethynyl-7-fluoronaphthalen-1-yl)-1-fluoro-12-(((2R,7aS)-2-fluorotetrahydro-1H-pyrrolizin-7a(5H)-yl)methoxy)-4,5,5a,6,7,8,9,10-octahydro-3,10a,11,13,14-pentaaza-6,9-methanonaphtho[1,8-ab]heptalene]: the figures for the EC50 with AsPC-1 (KRAS G12D) cells and with GP2D (KRAS G12D) cells were over 1000 nM and 100 nM, respectively. At GDP-loaded KRAS G12D, this compound returned an IC50 of 18.1 nM.
As to `C#Cc1c(F)ccc2cccc(-c3nc4c5c(nc(OC[C@@]67CCCN6C[C@H](F)C7)nc5c3F)N3C[C@H]5CC[C@H](N5)[C@H]3CC[C@H]4C)c12` [Example 171, (4R,6aR,7S,10R)-2-(8-ethynyl-7-fluoronaphthalen-1-yl)-1-fluoro-13-(((2R,7aS)-2-fluorotetrahydro-1H-pyrrolizin-7a(5H)-yl)methoxy)-4-methyl-5,6,6a,7,8,9,10,11-octahydro-4H-3,11a,12,14,15-pentaaza-7,10-methanocyclohepta[4,5]cycloocta[1,2,3-de]naphthalene], the half-maximal effective concentration (EC50) in the experiment with AsPC-1 (KRAS G12D) cells stood at 120 nM; with GP2D (KRAS G12D) cells, 1.9 nM. Moreover, the half-inhibitory concentration (IC50) on GDP-loaded KRAS G12D is under 0.1 nM.
`C#Cc1c(F)ccc2cccc(-c3nc4c5c(nc(OC[C@@]67CCCN6C[C@H](F)C7)nc5c3F)N3C[C@H]5CC[C@H](N5)[C@H]3C[C@@H]4F)c12` [Example 172, (4S,5aR,6S,9R)-2-(8-ethynyl-7-fluoronaphthalen-1-yl)-1,4-difluoro-12-(((2R,7aS)-2-fluorotetrahydro-1H-pyrrolizin-7a(5H)-yl)methoxy)-4,5,5a,6,7,8,9,10-octahydro-3,10a,11,13,14-pentaaza-6,9-methanonaphtho[1,8-ab]heptalene]: the EC50 in the experiment on AsPC-1 (KRAS G12D) cells is 480 nM; with GP2D (KRAS G12D) cells, 65.3 nM. Further, the IC50 at GDP-loaded KRAS G12D is 3.5 nM.
Consider `C#Cc1c(F)ccc2cccc(-c3nc4c5c(nc(OC[C@@]67CCCN6C[C@H](F)C7)nc5c3F)N3C[C@H]5CC[C@H](N5)[C@H]3C[C@H]4F)c12` [Example 173, (4R,5aR,6S,9R)-2-(8-ethynyl-7-fluoronaphthalen-1-yl)-1,4-difluoro-12-(((2R,7aS)-2-fluorotetrahydro-1H-pyrrolizin-7a(5H)-yl)methoxy)-4,5,5a,6,7,8,9,10-octahydro-3,10a,11,13,14-pentaaza-6,9-methanonaphtho[1,8-ab]heptalene], for which the values for the EC50 in the experiment on AsPC-1 (KRAS G12D) cells and in the experiment on GP2D (KRAS G12D) cells were 100 nM and 4.2 nM, respectively. Also, the IC50 on GDP-loaded KRAS G12D was under 0.1 nM.
The matching figures for `C#Cc1c(F)ccc2cccc(-c3nc4c5c(nc(OC[C@@]67CCCN6C[C@H](F)C7)nc5c3F)N3C[C@H]5CC[C@H](N5)[C@H]3C[C@@H]4CC)c12` [Example 175, (4S,5aR,6S,9R)-4-ethyl-2-(8-ethynyl-7-fluoronaphthalen-1-yl)-1-fluoro-12-(((2R,7aS)-2-fluorotetrahydro-1H-pyrrolizin-7a(5H)-yl)methoxy)-4,5,5a,6,7,8,9,10-octahydro-3,10a,11,13,14-pentaaza-6,9-methanonaphtho[1,8-ab]heptalene]: 150 nM, 11.9 nM and 0.5 nM.
Turning to `C#Cc1c(F)ccc2cc(O)cc(-c3nc4c5c(nc(OCC6(CN7CC8CC8C7)CC6)nc5c3F)N3C[C@H]5CC[C@H](N5)[C@H]3CC4)c12` (stereo partly drawn) [Example 176, 4-((5aR,6S,9R)-12-((1-((3-azabicyclo[3.1.0]hexan-3-yl)methyl)cyclopropyl)methoxy)-1-fluoro-4,5,5a,6,7,8,9,10-octahydro-3,10a,11,13,14-pentaaza-6,9-methanonaphtho[1,8-ab]heptalen-2-yl)-5-ethynyl-6-fluoronaphthalen-2-ol], the EC50 came out at 9.8 nM with AsPC-1 (KRAS G12D) cells and 0.4 nM in the experiment on GP2D (KRAS G12D) cells. This compound yielded a 50% inhibitory concentration (IC50) at GDP-loaded KRAS G12D of 0.1 nM.
With `C#Cc1c(F)ccc2cc(O)cc(-c3nc4c5c(nc(OCC6(CN7CC8CC(C8)C7)CC6)nc5c3F)N3C[C@H]5CC[C@H](N5)[C@H]3CC4)c12` [Example 179, 4-((5aR,6S,9R)-12-((1-((3-azabicyclo[3.1.1]heptan-3-yl)methyl)cyclopropyl)methoxy)-1-fluoro-4,5,5a,6,7,8,9,10-octahydro-3,10a,11,13,14-pentaaza-6,9-methanonaphtho[1,8-ab]heptalen-2-yl)-5-ethynyl-6-fluoronaphthalen-2-ol], the results for the concentration for a half-maximal effect (EC50) with AsPC-1 (KRAS G12D) cells and in the experiment on GP2D (KRAS G12D) cells were 7.7 nM and 0.4 nM, respectively. This compound returned a half-inhibitory concentration (IC50) on GDP-loaded KRAS G12D of 0.1 nM.
